In PubChem BioAssay AID246 (DTP/NCI, 2004):
“And” between values parts separate entries of the source, which are not always exact repeats. Equal entries are not always repeated. Toxic doses and inconclusive results are not listed. Rule for the calls: active = survival T/C of 150% or more; inactive = T/C below 125% in these data.

Test system: BDF1 mice, P1081 chloroleukemia ip, survival T/C
Assay: NCI In Vivo Anticancer Drug Screen. Data for tumor model P1081 Chloroleukemia (intraperitoneal) in B6D2F1 (BDF1) mice
Settings: endpoint: mean survival time, higher = longer survival
Protocol: The antitumor activity of compounds was measured in mice bearing transplantable tumors. Survival or tumor size were measured and the results are expressed as the measurement made in the treated group (T) divided by the measurement made in the vehicle treated control group (C). The tumor model used in this assay is P1081 Chloroleukemia (intraperitoneal) in B6D2F1 (BDF1) mice

[1] = dose: 62.5 mg/kg/injection, schedule: Q01DX Z (ip), vehicle: carboxymethylcellulose (CMC)
[2] = dose: 5.0 mg/kg/injection, schedule: Q01DX010 (ip), vehicle: saline
[3] = dose: 10.0 mg/kg/injection, schedule: Q01DX010 (ip), vehicle: saline
[4] = dose: 25.0 mg/kg/injection, schedule: Q01DX Z (ip), vehicle: water
[5] = dose: 25.0 mg/kg/injection, schedule: Q01DX010 (ip), vehicle: saline
[6] = dose: 12.5 mg/kg/injection, schedule: Q01DX010 (ip), vehicle: saline
[7] = dose: 31.25 mg/kg/injection, schedule: Q01DX Z (ip), vehicle: carboxymethylcellulose (CMC)
[8] = dose: 125.0 mg/kg/injection, schedule: Q01DX Z (ip), vehicle: carboxymethylcellulose (CMC)
[9] = dose: 250.0 mg/kg/injection, schedule: Q01DX Z (ip), vehicle: carboxymethylcellulose (CMC)

Measured: T/C

CN(C)c1nc(N(C)C)nc(N(C)C)n1
inactive: dose: 16.0 mg/kg/injection, schedule: Q01DX Z (ip), vehicle: carboxymethylcellulose (CMC) 95 % of control | dose: 18.8 mg/kg/injection, schedule: Q01DX010 (ip), vehicle: saline 116 % of control and 100 % of control | dose: 31.0 mg/kg/injection, schedule: Q01DX Z (ip), vehicle: carboxymethylcellulose (CMC) 92 % of control | dose: 37.5 mg/kg/injection, schedule: Q01DX010 (ip), vehicle: saline 116 % of control and 100 % of control | [1] 88 % of control | dose: 63.0 mg/kg/injection, schedule: Q01DX Z (ip), vehicle: carboxymethylcellulose (CMC) 123 % of control | dose: 75.0 mg/kg/injection, schedule: Q01DX010 (ip), vehicle: saline 116 % of control and 105 % of control | dose: 150.0 mg/kg/injection, schedule: Q01DX010 (ip), vehicle: saline 111 % of control and 100 % of control

O=C(Nc1ccc(C2=NCCN2)cc1)c1ccc(C(=O)Nc2ccc(C3=NCCN3)cc2)c(Cl)c1
inactive: dose: 1.8 mg/kg/injection, schedule: Q01DX Z (ip), vehicle: water 97 % of control | dose: 7.5 mg/kg/injection, schedule: Q01DX Z (ip), vehicle: water 97 % of control | dose: 60.0 mg/kg/injection, schedule: Q01DX Z (ip), vehicle: water 86 % of control

NC(Cc1ccc(N(CCCl)CCCl)cc1)C(=O)O (configuration not stated)
inactive: dose: 1.25 mg/kg/injection, schedule: Q01DX Z (ip), vehicle: carboxymethylcellulose (CMC) 115 % of control | [3] 90 % of control | dose: 10.0 mg/kg/injection, schedule: Q01DX Z (ip), vehicle: carboxymethylcellulose (CMC) 90 % of control
active: dose: 2.5 mg/kg/injection, schedule: Q01DX010 (ip), vehicle: saline 150 % of control and 333 % of control | [2] 327 % of control | dose: 5.0 mg/kg/injection, schedule: Q01DX Z (ip), vehicle: carboxymethylcellulose (CMC) 189 % of control

CSc1ncnc2c1ncn2C1OC(CO)C(O)C1O (configuration not stated)
inactive: dose: 3.1 mg/kg/injection, schedule: Q01DX Z (ip), vehicle: carboxymethylcellulose (CMC) 105 % of control and 92 % of control | dose: 6.25 mg/kg/injection, schedule: Q01DX Z (ip), vehicle: carboxymethylcellulose (CMC) 102 % of control | dose: 12.5 mg/kg/injection, schedule: Q01DX Z (ip), vehicle: carboxymethylcellulose (CMC) 105 % of control and 90 % of control | dose: 25.0 mg/kg/injection, schedule: Q01DX Z (ip), vehicle: carboxymethylcellulose (CMC) 105 % of control and 98 % of control

C[C@@H]1C[C@@H]([C@H](O)CC2CC(=O)NC(=O)C2)C(=O)[C@@H](C)C1
inactive: dose: 0.39 mg/kg/injection, schedule: Q01DX Z (ip), vehicle: water 89 % of control | dose: 3.12 mg/kg/injection, schedule: Q01DX Z (ip), vehicle: water 102 % of control | [2] 86 % of control and 100 % of control | [3] 110 % of control and 100 % of control | dose: 20.0 mg/kg/injection, schedule: Q01DX010 (ip), vehicle: saline 115 % of control and 100 % of control | [4] 93 % of control | dose: 40.0 mg/kg/injection, schedule: Q01DX010 (ip), vehicle: saline 90 % of control

Nc1nc(=S)c2[nH]cnc2[nH]1
active: dose: 0.25 mg/kg/injection, schedule: Q01DX Z (ip), vehicle: carboxymethylcellulose (CMC) 169 % of control | dose: 1.25 mg/kg/injection, schedule: Q01DX010 (ip), vehicle: other 150 % of control | dose: 250.0 micrograms/kg/injection, schedule: Q01DX Z (ip), vehicle: carboxymethylcellulose (CMC) 155 % of control
inactive: dose: 1.0 mg/kg/injection, schedule: Q01DX Z (ip), vehicle: carboxymethylcellulose (CMC) 91 % of control | dose: 2.5 mg/kg/injection, schedule: Q01DX010 (ip), vehicle: other 110 % of control and 113 % of control | dose: 5.0 mg/kg/injection, schedule: Q01DX010 (ip), vehicle: other 110 % of control | dose: 31.2 micrograms/kg/injection, schedule: Q01DX Z (ip), vehicle: carboxymethylcellulose (CMC) 100 % of control | dose: 62.5 micrograms/kg/injection, schedule: Q01DX Z (ip), vehicle: carboxymethylcellulose (CMC) 103 % of control

C=CC(CN1CC1)OC(C)=O (configuration not stated)
active: dose: 3.75 mg/kg/injection, schedule: Q01DX Z (ip), vehicle: carboxymethylcellulose (CMC) 194 % of control | dose: 4.0 mg/kg/injection, schedule: Q01DX010 (ip), vehicle: saline 150 % of control | dose: 8.0 mg/kg/injection, schedule: Q01DX010 (ip), vehicle: saline 160 % of control | dose: 16.0 mg/kg/injection, schedule: Q01DX010 (ip), vehicle: saline 170 % of control
inactive: dose: 0.24 mg/kg/injection, schedule: Q01DX Z (ip), vehicle: carboxymethylcellulose (CMC) 108 % of control | dose: 0.47 mg/kg/injection, schedule: Q01DX Z (ip), vehicle: carboxymethylcellulose (CMC) 116 % of control | dose: 0.94 mg/kg/injection, schedule: Q01DX Z (ip), vehicle: carboxymethylcellulose (CMC) 103 % of control

CS(=O)(=O)OCCC(=O)N1CCN(C(=O)CCOS(C)(=O)=O)CC1
120 % of control and 205 % of control: dose: 100.0 mg/kg/injection, schedule: Q01DX010 (ip), vehicle: saline
active: [5] 150 % of control and 285 % of control | dose: 50.0 mg/kg/injection, schedule: Q01DX010 (ip), vehicle: saline 260 % of control and 277 % of control

COc1cc(-c2ccc(Nc3ccccc3C(=O)O)c(OC)c2)ccc1Nc1ccccc1C(=O)O
inactive: [6] 116 % of control | [5] 122 % of control

C[C@H]1C(=O)O[C@@H]2CCN3CC=C(COC(=O)[C@](C)(O)[C@@]1(C)O)[C@H]23
active: dose: 120.0 mg/kg/injection, schedule: Q01DX Z (ip), vehicle: carboxymethylcellulose (CMC) 153 % of control
inactive: dose: 3.13 mg/kg/injection, schedule: Q01DX010 (ip), vehicle: saline 115 % of control and 95 % of control | dose: 6.25 mg/kg/injection, schedule: Q01DX010 (ip), vehicle: saline 100 % of control | dose: 7.5 mg/kg/injection, schedule: Q01DX Z (ip), vehicle: carboxymethylcellulose (CMC) 106 % of control | [6] 95 % of control | dose: 15.0 mg/kg/injection, schedule: Q01DX Z (ip), vehicle: carboxymethylcellulose (CMC) 99 % of control | [5] 120 % of control and 95 % of control | dose: 30.0 mg/kg/injection, schedule: Q01DX Z (ip), vehicle: carboxymethylcellulose (CMC) 101 % of control | dose: 60.0 mg/kg/injection, schedule: Q01DX Z (ip), vehicle: carboxymethylcellulose (CMC) 106 % of control | dose: 240.0 mg/kg/injection, schedule: Q01DX Z (ip), vehicle: carboxymethylcellulose (CMC) 103 % of control

O=CCC(O)C(O)C(O)CO (configuration not stated)
inactive: [7] 95 % of control | [1] 88 % of control | [8] 88 % of control | [9] 97 % of control

CN(C)c1ccc(/C=C\c2ccnc3ccccc23)cc1
inactive: dose: 0.4 mg/kg/injection, schedule: Q01DX Z (ip), vehicle: water 87 % of control | dose: 0.8 mg/kg/injection, schedule: Q01DX Z (ip), vehicle: water 99 % of control | dose: 1.6 mg/kg/injection, schedule: Q01DX Z (ip), vehicle: water 108 % of control and 122 % of control | dose: 3.1 mg/kg/injection, schedule: Q01DX Z (ip), vehicle: water 99 % of control and 105 % of control | dose: 6.25 mg/kg/injection, schedule: Q01DX Z (ip), vehicle: water 90 % of control and 94 % of control | dose: 6.3 mg/kg/injection, schedule: Q01DX Z (ip), vehicle: water 118 % of control and 120 % of control | dose: 12.5 mg/kg/injection, schedule: Q01DX Z (ip), vehicle: water 112 % of control and 94 % of control and 105 % of control | [4] 118 % of control and 88 % of control and 90 % of control

Clc1ncnc2nc[nH]c12
inactive: dose: 7.5 mg/kg/injection, schedule: Q01DX010 (ip), vehicle: saline 110 % of control and 90 % of control | dose: 15.0 mg/kg/injection, schedule: Q01DX010 (ip), vehicle: saline 90 % of control and 100 % of control | dose: 30.0 mg/kg/injection, schedule: Q01DX010 (ip), vehicle: saline 110 % of control and 95 % of control | [7] 98 % of control | dose: 60.0 mg/kg/injection, schedule: Q01DX010 (ip), vehicle: saline 110 % of control and 104 % of control | [1] 107 % of control and 105 % of control | [8] 114 % of control and 121 % of control | [9] 86 % of control and 94 % of control

COc1ccc2c(c1OC)C(=O)O[C@@H]2[C@H]1c2c(cc3c(c2OC)OCO3)CCN1C
inactive: dose: 31.3 mg/kg/injection, schedule: Q01DX010 (ip), vehicle: saline 88 % of control and 90 % of control | dose: 62.5 mg/kg/injection, schedule: Q01DX010 (ip), vehicle: saline 88 % of control and 95 % of control | dose: 125.0 mg/kg/injection, schedule: Q01DX010 (ip), vehicle: saline 88 % of control and 90 % of control | dose: 250.0 mg/kg/injection, schedule: Q01DX010 (ip), vehicle: saline 88 % of control and 90 % of control
